How the values were obtained:
Carbonic anhydrase 13 = Carbonic anhydrase 13 (Homo sapiens, UniProt Q8N1Q1); test: Inhibition of human recombinant carbonic anhydrase13 cytosolic isoform expressed in Escherichia coli BL21 preincubated for 15 mins by stopped-flow CO2 hydration assay
Carbonic anhydrase 7 = Carbonic anhydrase 7 (Homo sapiens, UniProt P43166); test: Inhibition of human recombinant carbonic anhydrase7 cytosolic isoform expressed in Escherichia coli BL21 preincubated for 15 mins by stopped-flow CO2 hydration assay
Carbonic anhydrase 14 = Carbonic anhydrase 14 (Homo sapiens, UniProt Q9ULX7); test: Inhibition of human recombinant carbonic anhydrase14 transmembrane isoform expressed in Escherichia coli BL21 preincubated for 15 mins by stopped-flow CO2 hydration assay
Carbonic anhydrase 12 = Carbonic anhydrase 12 (Homo sapiens, UniProt O43570); test: Inhibition of human recombinant carbonic anhydrase12 transmembrane isoform expressed in Escherichia coli BL21 preincubated for 15 mins by stopped-flow CO2 hydration assay
Carbonic anhydrase 6 = Carbonic anhydrase 6 (Homo sapiens, UniProt P23280); test: Inhibition of human recombinant carbonic anhydrase6 secreted isoform expressed in Escherichia coli BL21 preincubated for 15 mins by stopped-flow CO2 hydration assay
[1] = target: Carbonic anhydrase 5A, mitochondrial (Homo sapiens, UniProt P35218); test: Inhibition of human recombinant carbonic anhydrase5A mitochondrial isoform expressed in Escherichia coli BL21 preincubated for 15 mins by stopped-flow CO2 hydration assay
Carbonic anhydrase 4 = Carbonic anhydrase 4 (Homo sapiens, UniProt P22748); test: Inhibition of human recombinant carbonic anhydrase4 membrane-bound isoform expressed in Escherichia coli BL21 preincubated for 15 mins by stopped-flow CO2 hydration assay
Carbonic anhydrase 3 = Carbonic anhydrase 3 (Homo sapiens, UniProt P07451); test: Inhibition of human recombinant carbonic anhydrase3 cytosolic isoform expressed in Escherichia coli BL21 preincubated for 15 mins by stopped-flow CO2 hydration assay
Carbonic anhydrase 2 = Carbonic anhydrase 2 (Homo sapiens, UniProt P00918); test: Inhibition of human recombinant carbonic anhydrase2 cytosolic isoform expressed in Escherichia coli BL21 preincubated for 15 mins by stopped-flow CO2 hydration assay
Carbonic anhydrase 1 = Carbonic anhydrase 1 (Homo sapiens, UniProt P00915); test: Inhibition of human recombinant carbonic anhydrase1 cytosolic isoform expressed in Escherichia coli BL21 preincubated for 15 mins by stopped-flow CO2 hydration assay
Carbonic anhydrase 9 = Carbonic anhydrase 9 (Homo sapiens, UniProt Q16790); test: Inhibition of human recombinant carbonic anhydrase9 transmembrane isoform expressed in Escherichia coli BL21 preincubated for 15 mins by stopped-flow CO2 hydration assay

Sequence of Carbonic anhydrase 12 (O43570 whole entry, canonical isoform): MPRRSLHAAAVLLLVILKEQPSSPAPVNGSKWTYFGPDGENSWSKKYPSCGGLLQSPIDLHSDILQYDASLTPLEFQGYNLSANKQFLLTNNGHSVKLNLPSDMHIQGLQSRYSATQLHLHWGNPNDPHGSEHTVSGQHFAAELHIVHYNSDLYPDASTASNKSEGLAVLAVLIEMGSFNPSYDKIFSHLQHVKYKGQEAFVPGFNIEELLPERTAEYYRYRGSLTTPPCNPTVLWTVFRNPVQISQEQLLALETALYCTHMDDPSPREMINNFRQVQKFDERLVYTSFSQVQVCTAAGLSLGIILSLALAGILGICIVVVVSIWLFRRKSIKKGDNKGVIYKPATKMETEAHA
Sequence of Carbonic anhydrase 7 (P43166 whole entry, canonical isoform): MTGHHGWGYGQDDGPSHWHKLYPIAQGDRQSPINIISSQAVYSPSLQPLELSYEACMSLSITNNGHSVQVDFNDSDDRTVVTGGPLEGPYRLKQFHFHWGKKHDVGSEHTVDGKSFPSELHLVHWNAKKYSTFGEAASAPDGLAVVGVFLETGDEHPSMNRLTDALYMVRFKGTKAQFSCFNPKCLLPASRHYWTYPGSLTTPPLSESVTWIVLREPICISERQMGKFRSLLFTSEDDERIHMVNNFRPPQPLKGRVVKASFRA
Sequence of Carbonic anhydrase 4 (P22748 whole entry, canonical isoform): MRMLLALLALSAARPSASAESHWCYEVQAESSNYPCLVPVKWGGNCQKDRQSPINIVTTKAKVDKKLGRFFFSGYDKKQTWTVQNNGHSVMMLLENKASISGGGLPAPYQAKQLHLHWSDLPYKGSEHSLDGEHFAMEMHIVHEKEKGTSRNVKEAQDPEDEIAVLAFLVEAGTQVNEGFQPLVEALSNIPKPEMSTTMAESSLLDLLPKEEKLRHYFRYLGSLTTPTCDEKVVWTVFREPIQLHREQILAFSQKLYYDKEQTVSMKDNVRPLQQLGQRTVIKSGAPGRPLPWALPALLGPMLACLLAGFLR
Sequence of Carbonic anhydrase 3 (P07451 whole entry, canonical isoform): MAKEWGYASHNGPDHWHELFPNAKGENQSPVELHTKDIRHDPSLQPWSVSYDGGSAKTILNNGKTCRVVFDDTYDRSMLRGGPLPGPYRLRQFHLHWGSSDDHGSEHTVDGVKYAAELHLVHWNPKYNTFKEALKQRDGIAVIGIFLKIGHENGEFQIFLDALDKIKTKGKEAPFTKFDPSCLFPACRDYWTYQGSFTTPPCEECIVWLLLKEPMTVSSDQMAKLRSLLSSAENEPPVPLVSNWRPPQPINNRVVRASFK
Sequence of Carbonic anhydrase 6 (P23280 whole entry, canonical isoform): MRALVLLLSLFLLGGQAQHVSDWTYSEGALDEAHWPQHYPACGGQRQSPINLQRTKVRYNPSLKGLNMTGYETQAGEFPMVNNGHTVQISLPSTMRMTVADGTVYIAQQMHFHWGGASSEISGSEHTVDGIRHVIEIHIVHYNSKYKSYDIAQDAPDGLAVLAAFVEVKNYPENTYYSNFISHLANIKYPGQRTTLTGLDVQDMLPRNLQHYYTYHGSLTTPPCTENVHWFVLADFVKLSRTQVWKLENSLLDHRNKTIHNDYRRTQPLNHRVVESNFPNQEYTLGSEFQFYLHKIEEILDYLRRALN
Sequence of Carbonic anhydrase 13 (Q8N1Q1 whole entry, canonical isoform): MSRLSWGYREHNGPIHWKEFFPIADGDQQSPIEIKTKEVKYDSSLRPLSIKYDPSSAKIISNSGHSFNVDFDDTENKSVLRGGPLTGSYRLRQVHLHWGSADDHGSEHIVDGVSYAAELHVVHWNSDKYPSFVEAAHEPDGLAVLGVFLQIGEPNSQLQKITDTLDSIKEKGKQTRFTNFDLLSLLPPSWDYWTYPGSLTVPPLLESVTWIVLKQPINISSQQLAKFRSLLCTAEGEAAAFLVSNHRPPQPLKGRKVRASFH
Sequence of Carbonic anhydrase 1 (P00915 whole entry, canonical isoform): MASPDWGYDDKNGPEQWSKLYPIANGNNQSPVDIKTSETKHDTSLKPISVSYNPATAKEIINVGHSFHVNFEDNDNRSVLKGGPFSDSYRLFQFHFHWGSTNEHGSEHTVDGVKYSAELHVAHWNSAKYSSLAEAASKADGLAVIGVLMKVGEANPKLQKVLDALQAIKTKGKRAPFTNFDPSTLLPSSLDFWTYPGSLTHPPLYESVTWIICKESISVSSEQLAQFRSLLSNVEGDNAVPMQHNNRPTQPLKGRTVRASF
Sequence of Carbonic anhydrase 5A, mitochondrial (P35218 whole entry, canonical isoform): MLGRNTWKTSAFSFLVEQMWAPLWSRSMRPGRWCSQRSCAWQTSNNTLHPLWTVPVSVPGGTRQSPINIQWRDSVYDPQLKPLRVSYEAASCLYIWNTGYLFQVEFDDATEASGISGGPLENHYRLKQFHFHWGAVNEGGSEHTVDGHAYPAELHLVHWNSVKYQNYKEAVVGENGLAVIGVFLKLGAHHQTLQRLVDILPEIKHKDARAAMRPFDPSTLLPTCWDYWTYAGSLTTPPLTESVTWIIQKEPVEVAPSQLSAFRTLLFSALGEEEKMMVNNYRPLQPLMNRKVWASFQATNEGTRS
Sequence of Carbonic anhydrase 14 (Q9ULX7 whole entry, canonical isoform): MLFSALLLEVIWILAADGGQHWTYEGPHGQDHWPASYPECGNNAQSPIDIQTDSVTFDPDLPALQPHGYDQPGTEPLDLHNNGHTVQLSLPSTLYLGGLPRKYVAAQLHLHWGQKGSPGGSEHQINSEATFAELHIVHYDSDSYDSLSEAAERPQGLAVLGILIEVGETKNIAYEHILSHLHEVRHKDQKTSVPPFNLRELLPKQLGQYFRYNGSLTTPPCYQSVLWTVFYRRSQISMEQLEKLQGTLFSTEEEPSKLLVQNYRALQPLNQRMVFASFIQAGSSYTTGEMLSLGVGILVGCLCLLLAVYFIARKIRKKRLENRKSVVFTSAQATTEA

Ki (Carbonic anhydrase 13) [nM] | Ki (Carbonic anhydrase 7) [nM] | Ki (Carbonic anhydrase 14) [nM] | Ki (Carbonic anhydrase 12) [nM] | Ki (Carbonic anhydrase 6) [nM] | Ki [1] [nM] | Ki (Carbonic anhydrase 4) [nM] | Ki (Carbonic anhydrase 3) [nM] | Ki (Carbonic anhydrase 2) [nM] | Ki (Carbonic anhydrase 1) [nM] | Ki (Carbonic anhydrase 9) [nM] | Structure (SMILES)
921 | 45 |  |  |  |  |  |  |  |  |  | CNc1nc(NC)nc(Nc2ccc(S(N)(=O)=O)cc2)n1
470 | 21.9 | 42 | 4.6 | 1390 | > 10000 | 1360 | 7010 | 7.1 | 203 |  | NS(=O)(=O)c1ccc(CCNc2nc(F)nc(F)n2)cc1
> 10000 | 8.5 |  | 17.5 |  |  |  |  | 5.5 | 238 | 208 | NS(=O)(=O)c1ccc(Nc2nc(F)nc(NCCO)n2)cc1
1030 | 6.2 |  | 10 |  |  |  |  | 4.9 | 88 |  | NS(=O)(=O)c1ccc(Nc2nc(F)nc(F)n2)cc1
735 | 6.7 |  | 15.4 |  |  |  |  | 5.4 | 90 | 228 | CNc1nc(F)nc(Nc2ccc(S(N)(=O)=O)cc2)n1
> 10000 | 8.3 | 126 | 4.5 | 148 | 915 | 3660 | 9020 | 5 | 250 | 214 | NS(=O)(=O)c1ccc(CCNc2nc(F)nc(NCC(=O)O)n2)cc1
602 | 6.5 | 214 | 5 | 167 | 650 | 2740 | 6860 | 5.6 | 81.5 | 199 | COC(=O)CNc1nc(F)nc(NCCc2ccc(S(N)(=O)=O)cc2)n1
